# In BindingDB's records for patent US20250144094 (Erasca, 2025):
# pIC50: −log10 of the molar value.
# Target: T1, Serine/threonine-protein kinase ULK1 (Homo sapiens, UniProt O75385)
# T1 sequence (O75385 whole entry): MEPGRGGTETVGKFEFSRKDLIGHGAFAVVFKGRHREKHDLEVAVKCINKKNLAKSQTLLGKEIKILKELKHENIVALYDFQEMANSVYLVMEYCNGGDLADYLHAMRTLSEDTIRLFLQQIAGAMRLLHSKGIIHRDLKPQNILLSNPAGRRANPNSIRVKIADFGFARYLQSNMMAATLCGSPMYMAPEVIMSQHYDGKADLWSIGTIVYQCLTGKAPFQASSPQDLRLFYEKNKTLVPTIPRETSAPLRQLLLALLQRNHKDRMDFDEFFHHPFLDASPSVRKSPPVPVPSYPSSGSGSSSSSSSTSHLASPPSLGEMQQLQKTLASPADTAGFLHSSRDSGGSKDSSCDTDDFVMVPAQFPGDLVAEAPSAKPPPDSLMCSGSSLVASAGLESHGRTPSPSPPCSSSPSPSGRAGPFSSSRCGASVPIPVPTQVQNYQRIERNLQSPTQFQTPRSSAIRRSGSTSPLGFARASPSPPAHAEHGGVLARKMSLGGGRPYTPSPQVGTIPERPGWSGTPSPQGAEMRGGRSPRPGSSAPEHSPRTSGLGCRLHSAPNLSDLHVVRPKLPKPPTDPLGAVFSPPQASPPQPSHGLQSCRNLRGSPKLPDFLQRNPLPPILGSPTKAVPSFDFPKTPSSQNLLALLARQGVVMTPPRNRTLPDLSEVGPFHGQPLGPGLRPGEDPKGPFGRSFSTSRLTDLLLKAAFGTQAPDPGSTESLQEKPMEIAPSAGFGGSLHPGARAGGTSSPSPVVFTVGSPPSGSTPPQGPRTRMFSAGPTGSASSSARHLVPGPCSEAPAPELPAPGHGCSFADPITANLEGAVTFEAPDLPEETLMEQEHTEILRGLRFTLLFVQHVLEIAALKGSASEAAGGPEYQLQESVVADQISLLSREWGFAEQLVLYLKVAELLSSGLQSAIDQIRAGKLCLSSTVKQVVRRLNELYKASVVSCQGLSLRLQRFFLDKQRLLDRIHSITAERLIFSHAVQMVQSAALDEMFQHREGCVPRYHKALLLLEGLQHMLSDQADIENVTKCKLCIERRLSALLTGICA
# Assay: ADP Glo Kinase Activity Assay
# Description: (§1) Table 3: ULK1 inhibitor potency was determined using the luminescent ADP Glo Kinase Assay (Promega), a universal ADP detection system that measures kinase activity by quantifying the amount of ADP produced during a kinase reaction. ULK1 kinase reactions are performed in a standard 96-well microplate (20 uL reaction volume) at 25° C. for 40 minutes in the presence or absence of the test compound (12-point dilution series starting at 10 uM). Addition of MBP substrate and ATP initiates the kinase reaction.The standard ADP Glo assay is performed in two steps. In step one, following the kinase reaction, an equal volume of ADP-Glo™ Reagent (20 uL) is added to terminate the kinase reaction and deplete the remaining ATP. In the second step, the Kinase Detection Reagent (10 uL) is added to simultaneously convert ADP to ATP and allow the newly synthesized ATP to be measured using a luciferase/luciferin reaction. Step two of the ADP Glo assay is performed in a white 384-well plate (20 uL final volume). Thirty minutes after the addition of the Detection reagent, light generated from the luciferase reaction is measured (1 second exposure) using a microplate compatible luminometer (CLARIOstar, BMG Labtech).Inhibition of ULK1 kinase activity is determined for each test compound by comparison to DMSO only control wells.
row,SMILES,pIC50
1,"COCCS(=O)(=O)c1csc(-c2nc(Nc3cc4c(cc3C3CC3)CNCC4)ncc2C(F)(F)F)c1 [US20250144094, Example 65]",> 8.00
2,"CN1Cc2ccc(Nc3ncc(C(F)(F)F)c(-c4cc(S(C)(=O)=O)cs4)n3)cc2C1 [US20250144094, Example 81]",> 8.00
3,"CN1CCc2cc(Nc3ncc(C(F)(F)F)c(-c4cc(S(C)(=O)=O)cs4)n3)ccc2C1 [US20250144094, Example 106]",> 8.00
4,"CN1CCN(c2ccc(Nc3ncc(C(F)(F)F)c(-c4cc(S(C)(=O)=O)cs4)n3)c(Cl)c2)CC1 [US20250144094, Example 112]",> 8.00
5,"CS(=O)(=O)c1csc(-c2nc(Nc3cn(C4CNC4)nc3C3CC3)ncc2C(F)(F)F)c1 [US20250144094, Example 130]",> 8.00
6,"O=C1NCCS(=O)(=O)c2cc(-c3nc(Nc4cc5c(cc4F)CNCC5)ncc3C(F)(F)F)sc21 [US20250144094, Example 134]",> 8.00

# Target: T2, Serine/threonine-protein kinase ULK1 [1-649] (UniProt O75385)
# T2 construct: 1-649
# T2 sequence (O75385 whole entry): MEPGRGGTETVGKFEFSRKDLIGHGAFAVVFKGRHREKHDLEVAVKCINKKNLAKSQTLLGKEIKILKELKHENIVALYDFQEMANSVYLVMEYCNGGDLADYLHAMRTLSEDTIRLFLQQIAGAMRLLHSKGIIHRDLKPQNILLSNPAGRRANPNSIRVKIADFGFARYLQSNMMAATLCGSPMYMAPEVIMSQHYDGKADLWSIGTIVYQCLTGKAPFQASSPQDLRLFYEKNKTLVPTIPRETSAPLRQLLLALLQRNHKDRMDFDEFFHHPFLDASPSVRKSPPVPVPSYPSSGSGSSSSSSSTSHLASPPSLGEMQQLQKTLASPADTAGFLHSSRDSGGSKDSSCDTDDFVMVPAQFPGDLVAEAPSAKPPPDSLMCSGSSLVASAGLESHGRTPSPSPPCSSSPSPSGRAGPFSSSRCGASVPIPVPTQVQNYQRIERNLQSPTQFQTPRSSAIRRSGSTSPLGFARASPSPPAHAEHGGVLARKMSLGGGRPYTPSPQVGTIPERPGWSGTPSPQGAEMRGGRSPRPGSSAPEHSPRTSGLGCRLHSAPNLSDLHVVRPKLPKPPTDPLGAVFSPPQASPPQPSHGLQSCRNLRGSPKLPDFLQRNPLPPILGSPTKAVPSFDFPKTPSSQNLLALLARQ
# Assay: ADP Glo Kinase Activity Assay
# Description: as §1, with “4:” for “3:”, “μL” for “uL”, “μM).” for “uM).”, “peptide” for “MBP”, “μL)” for “uL)”, “wells. Inhibitor IC50 was calculated by plotting the change in luminescence after 30 minutes (response) versus inhibitor concentration (in log molar) then applying the four-parameter variable slope curve fit (GraphPad Prism).” for “wells.”
row,SMILES,pIC50
1,"O=C1c2sc(-c3nc(Nc4cc5c(cc4Cl)CNCC5)ncc3C(F)(F)F)cc2S(=O)(=O)CCN1CC1CC1 [US20250144094, Example 153]",> 8.30
2,"CN1CCN(c2ccc(Nc3ncc(C(F)(F)F)c(-c4cc5c(s4)C(=O)N(C)CCS5(=O)=O)n3)c(Cl)c2)CC1 [US20250144094, Example 194]",> 8.30
3,"CCN1CCc2cc(Nc3ncc(C(F)(F)F)c(-c4cc5c(s4)C(=O)N(C4CCC4)CCS5(=O)=O)n3)c(C3CC3)cc2C1 [US20250144094, Example 226]",> 8.30
4,"CCc1cc2c(cc1Nc1ncc(C(F)(F)F)c(-c3cc4c(s3)C(=O)N(C3COC3)CCS4(=O)=O)n1)CCNC2 [US20250144094, Example 229]",> 8.30
5,"CCN1CCc2cc(Nc3ncc(C(F)(F)F)c(-c4cc5c(s4)C(=O)N(CC(F)(F)F)CCS5(=O)=O)n3)c(C3CC3)cc2C1 [US20250144094, Example 245]",> 8.30
6,"O=C1c2sc(-c3nc(Nc4ccc(N5CCN(CC6CC6)CC5)cc4C4CC4)ncc3C(F)(F)F)cc2S(=O)(=O)CCN1C1CC1 [US20250144094, Example 251]",> 8.30
7,"NC(=O)CN1CCc2cc(Nc3ncc(C(F)(F)F)c(-c4cc5c(s4)C(=O)N(C4CC4)CCS5(=O)=O)n3)c(C3CC3)cc2C1 [US20250144094, Example 278]",> 8.30
8,"CCc1cc(C2CCNCC2)ccc1Nc1ncc(C(F)(F)F)c(-c2cc3c(s2)C(=O)N(C2CC2)CCS3(=O)=O)n1 [US20250144094, Example 281]",8.12
9,"O=C1c2sc(-c3nc(Nc4cc5c(cc4C4CC4)CN(CCF)CC5)ncc3C(F)(F)F)cc2S(=O)(=O)CCN1C1COC1 [US20250144094, Example 290]",> 8.30
10,"C[C@@H]1CN(c2ccc(Nc3ncc(C(F)(F)F)c(-c4cc5c(s4)C(=O)N(C)CCS5(=O)=O)n3)c(C3CC3)c2)CCN1 [US20250144094, Example 365]",> 8.30
11,"CN1CCS(=O)(=O)c2cc(-c3nc(Nc4ccc(N5CC6CC(C5)N6)cc4C4CC4)ncc3C(F)(F)F)sc2C1=O [US20250144094, Example 381]",> 8.30
